# Results: publication PMC7815315, “Atomic structures of respiratory complex III2, complex IV, and supercomplex III2-IV from vascular plants” (eLife, 2021)
# Molecular target: T1, VrCIII2 (complex III dimer, cytochrome bc1 complex); cytochrome b (COB) sites (Vigna radiata, UniProt E9KZM1)
# T1 construct: native obligate dimer, 10 subunits per monomer, from mitochondria of etiolated hypocotyls; digitonin-extracted, amphipol A8-35; RNA-edited COB; partially purified (sucrose gradient); with Cytochrome c1, heme protein, mitochondrial; Cytochrome b-c1 complex subunit Rieske, mitochondrial; Mitochondrial-processing peptidase subunit alpha; Mitochondrial-processing peptidase subunit beta; Cytochrome b-c1 complex subunit 6; Cytochrome b-c1 complex subunit 7; Cytochrome b-c1 complex subunit 8; Cytochrome b-c1 complex subunit 9; Cytochrome b-c1 complex subunit 10
# Assay: spectroscopic cytochrome c reduction at […] nm, pooled gradient fractions
# Type: biochemical
# Settings: 100 uM reduced decylubiquinone, 100 uM equine cyt c, pH 7.8, room temperature
structure (smiles),measurement,value
CCCCCCCCCCc1c(C)c(O)c(OC)c(OC)c1O [reduced decylubiquinone],"spectroscopic cytochrome c reduction at 550 nm, pooled gradient fractions",CIII2 respiratory activity (electron transfer from reduced decylubiquinone to cytochrome c)
